From the Deep4Chem optical property database
Values belong to the compound of their own block, whether it stands above or below them.

Assay: solvent given as SMILES

Compound: COc1ccc(-c2c3ccc([nH]3)c3nc(c(-c4ccc(C#N)cc4)c4ccc([nH]4)c4ccc([nH]4)c(-c4ccc(OC)cc4)c4ccc2o4)C=C3)cc1
fluorescence lifetime (in C1CCOC1): 5.6 ns | fluorescence lifetime (in Cc1ccccc1): 5.65 ns | fluorescence lifetime (in c1ccccc1): 4.88 ns

fluorescence lifetime (in CO): 8 ns | fluorescence lifetime (in ClC(Cl)Cl): 9.6 ns | fluorescence lifetime (in O): 4.4 ns
Compound: CC(=O)OCCOCCN1C(=O)c2cc(NCCOCCO)c3c4c(cc(NCCOCCO)c(c24)C1=O)C(=O)N(CCOCCOC(C)=O)C3=O

fluorescence lifetime (in C1CCCCC1): 0.621 ns
Compound: CN(C)c1ccc(/C=C/C=C/c2ccc(B(O)O)cc2)cc1

Compound: c1ccc(N(c2ccccc2)c2c3ccccc3cc3ccccc23)cc1
fluorescence lifetime (in Cc1ccccc1): 21 ns

Compound: N#Cc1c(-n2c3ccccc3c3ccccc32)c(-n2c3ccccc3c3ccccc32)c(-n2c3ccccc3c3ccccc32)c(-n2c3ccccc3c3ccccc32)c1-n1c2ccccc2c2ccccc21
fluorescence lifetime (in Cc1ccccc1): 3.8 ns | fluorescence lifetime (in c1cc(-c2cccc(-n3c4ccccc4c4ccccc43)c2)cc(-n2c3ccccc3c3ccccc32)c1): 3.2 ns

fluorescence lifetime (in ClC(Cl)Cl): 5.4 ns
Compound: CCCCCCN1C(=O)C(c2ccc(-n3c4ccccc4c4ccccc43)cc2)=C(c2ccc(-n3c4ccccc4c4ccccc43)cc2)C1=O
fluorescence lifetime (in c1ccc2c(c1)c1ccccc1n2-c1ccc(-c2ccc(-n3c4ccccc4c4ccccc43)cc2)cc1): 4 ns

fluorescence lifetime (in C1CCCCC1): 2.4 ns
Compound: C(#Cc1cccc2cc(-c3ccccc3)c3cc(-c4cc[b-]5c(c4)c(-c4ccccc4)cc4cccc(C#Cc6ccccc6)[n+]54)cc[b-]3[n+]12)c1ccccc1

fluorescence lifetime (in CC#N): 12.1 ns | fluorescence lifetime (in ClCCl): 0.78 ns
Compound: Cc1cc(-c2ccccc2)cc(C)[o+]1

fluorescence lifetime (in O): 3.6 ns
Compound: CCN1CCCc2cc3c(cc21)Oc1cc2c(cc1=N3)C(CS(=O)(=O)[O-])CC(C)(C)[N+]=2CCCC(=O)[O-] (stereo unspecified)

fluorescence lifetime (in CC#N): 0.22 ns | fluorescence lifetime (in CO): 0.19 ns | fluorescence lifetime (in O): 0.18 ns
Compound: CN(C)CCCN1c2ccccc2CCc2ccc(Cl)cc21

fluorescence lifetime (in CS(C)=O): 1.25 ns
Compound: c1ccc2c(c1)c1ccccc1c1[nH]c(-c3ccc(-c4nc5c6ccccc6c6ccccc6c5[nH]4)cc3)nc21

fluorescence lifetime (in CCCCC): 0.65 ns | fluorescence lifetime (in CCCCCC): 0.62 ns | fluorescence lifetime (in CCCCCCC): 0.61 ns | fluorescence lifetime (in CCCCCCCC): 0.64 ns | fluorescence lifetime (in CCCCCCCCC): 0.62 ns | fluorescence lifetime (in CCCCCCCCCC): 0.64 ns | fluorescence lifetime (in CCCCCCCCCCCC): 0.64 ns | fluorescence lifetime (in CCCCCCCCCCCCC): 0.65 ns | fluorescence lifetime (in CCCCCCCCCCCCCCC): 0.64 ns | fluorescence lifetime (in CCCCCCCCCCCCCCCC): 0.63 ns | fluorescence lifetime (in CCCCCCCCCCO): 0.64 ns | fluorescence lifetime (in CCCCCCCCCO): 0.64 ns | fluorescence lifetime (in CCCCCCCCO): 0.63 ns | fluorescence lifetime (in CCCCCCCO): 0.64 ns | fluorescence lifetime (in CCCCCCO): 0.64 ns | fluorescence lifetime (in CCCCCO): 0.65 ns | fluorescence lifetime (in CCCCO): 0.64 ns | fluorescence lifetime (in CCCO): 0.65 ns | fluorescence lifetime (in CCO): 0.67 ns | fluorescence lifetime (in CO): 0.67 ns
Compound: CCC1(CC)c2cc(-c3ccc(C(C)(C)C)cc3)ccc2-c2ccc(-c3ccc4c(c3)C(CC)(CC)c3cc(-c5ccc6c(c5)C(CC)(CC)c5cc(-c7ccc(C(C)(C)C)cc7)ccc5-6)ccc3-4)cc21

fluorescence lifetime (in CCO): 5.21 ns | fluorescence lifetime (in O): 4.79 ns
Compound: O=C([O-])c1ccc(C(=O)[O-])c(C2=c3cc4c5c(c3Oc3c2cc2c6c3CCCN6CCC2)CCC[N+]=5CCC4)c1

Compound: CCCCCCCCCCCCn1nnc(-c2ccc(C#Cc3ccc(C#Cc4ccc(-c5nnn(CCCCCCCCCCCC)n5)cc4)c4nc5c6ccccc6c6ccccc6c5nc34)cc2)n1
fluorescence lifetime (in C1CCOC1): 2.54 ns | fluorescence lifetime (in Cc1ccccc1): 3.55 ns | fluorescence lifetime (in ClCCl): 4.82 ns

fluorescence lifetime (in CC1CCCCC1): 1.28 ns | fluorescence lifetime (in CC#N): 1.87 ns | fluorescence lifetime (in CO): 1.92 ns
Compound: COC(=O)C(NC(=O)OC(C)(C)C)c1ccc2oc(-c3ccc(C#N)cc3)nc2c1 (stereo unspecified)

fluorescence lifetime (in C1CCOC1): 8 ns
Compound: Cc1ccc(-c2ccc(-c3ccc(C)cc3)c(/C(=C(/c3ccccc3)c3cc(-c4ccc(C)cc4)ccc3-c3ccc(C)cc3)c3ccccc3)c2)cc1

fluorescence lifetime (in ClCCl): 5.3 ns
Compound: COc1ccc(C#Cc2c3ccccc3c(C#Cc3ccc(OC)cc3)c3cc4sc(C)cc4cc23)cc1

fluorescence lifetime (in ClC(Cl)Cl): 1.9 ns
Compound: COc1ccc(-c2oc3cccc4c5c(-c6ccc(OC)c(OC)c6)c(=N)oc6cccc(c2c34)c65)cc1OC

Compound: Cc1c(C)c(B(c2c(C)c(C)c(N3c4ccccc4Oc4ccccc43)c(C)c2C)c2c(C)c(C)c(N3c4ccccc4Oc4ccccc43)c(C)c2C)c(C)c(C)c1C#N
fluorescence lifetime (in c1ccc([Si](c2ccccc2)(c2ccc(-n3c4ccccc4c4ccccc43)cc2)c2ccc(-n3c4ccccc4c4ccccc43)cc2)cc1): 18 ns

fluorescence lifetime (in CCO): 3.19 ns | fluorescence lifetime (in O): 2.23 ns
Compound: CN(C)c1ccc2c(-c3ccc(N)cc3C(=O)[O-])c3ccc(=[N+](C)C)cc-3oc2c1

fluorescence lifetime (in C1CCOC1): 2.8 ns
Compound: FC(F)(F)c1ccc(C2=CC3=c4cc(-c5ccc(C(F)(F)F)cc5)c5nc(C(F)(F)C(F)(F)C(F)(F)F)nc6c(-c7ccc(C(F)(F)F)cc7)cc(c4c65)C4=CC(c5ccc(C(F)(F)F)cc5)=C5N=C(C(F)(F)C(F)(F)C(F)(F)F)N=C2C5C43)cc1 (stereo unspecified)

Compound: O=C1NC(=O)c2c1c1c3ccccc3[nH]c1c1[nH]c3ccccc3c21
fluorescence lifetime (in C1CCOC1): 8.6 ns | fluorescence lifetime (in CC#N): 10 ns | fluorescence lifetime (in CC(C)OC(C)C): 7.3 ns | fluorescence lifetime (in CCCCOCCCC): 8 ns | fluorescence lifetime (in CCO): 7.7 ns | fluorescence lifetime (in CCOC(C)=O): 8.6 ns | fluorescence lifetime (in CN(C)C=O): 13 ns | fluorescence lifetime (in ClCCl): 7.1 ns

fluorescence lifetime (in C1CCCCC1): 0.184 ns | fluorescence lifetime (in CC#N): 0.06 ns | fluorescence lifetime (in CCO): 0.07 ns | fluorescence lifetime (in CCOC(C)=O): 0.082 ns | fluorescence lifetime (in CO): 0.063 ns | fluorescence lifetime (in OCC(F)(F)F): 0.069 ns
Compound: Cc1ccc(C2=C3C=C(I)C=[N+]3[B-](F)(F)n3cccc32)cc1

fluorescence lifetime (in ClCCl): 0.4 ns
Compound: CC1=C(I)C(C)=[N+]2C1=C(c1c(-c3ccccn3)nc3ccccn13)c1c(C)c(I)c(C)n1[B-]2(F)F

fluorescence lifetime (in C1CCCCC1): 4.12 ns | fluorescence lifetime (in CCOC(C)=O): 3.81 ns | fluorescence lifetime (in CO): 1.67 ns
Compound: CCCCCCOc1ccc2oc3c(c2c1)=CC1=C(c2ccccc2C)c2cc4c5cc(OCCCCCC)ccc5oc4n2[B-](F)(F)[N+]=31

fluorescence lifetime (in CN(C)C=O): 4.1 ns
Compound: NCCCCCCCCCCCCN1C(=O)c2ccc3c4ccc5c6c(ccc(c7ccc(c2c37)C1=O)c64)C(=O)N(CCCCCCCCCCCCN)C5=O

fluorescence lifetime (in ClCCl): 12.6 ns
Compound: CCN(CC)c1ccc2cc(-c3nc4c5ccccc5c5ccccc5c4n3-c3ccc(C(C)(C)C)cc3)c(=O)oc2c1

fluorescence lifetime (in CC#N): 2.06 ns
Compound: COc1cc2cc(/C=C/c3ccc(/C=C(\C#N)C(=O)O)cc3)c(=O)oc2cc1OC

fluorescence lifetime (in C1COCCO1): 0.45 ns | fluorescence lifetime (in CC#N): 0.49 ns | fluorescence lifetime (in CO): 0.6 ns | fluorescence lifetime (in O): 1.04 ns
Compound: O=c1[nH]c(=O)n([C@@H]2O[C@H](CO)[C@@H](O)[C@H]2O)cc1-c1cc2ccccc2s1

fluorescence lifetime (in C1COCCO1): 0.78 ns
Compound: c1ccc(-c2nc(-c3ccc(-c4ccc(-c5ccc(-c6nc(-c7ccccc7)c(-c7ccccc7)o6)cc5)cc4)cc3)oc2-c2ccccc2)cc1

fluorescence lifetime (in CC#N): 18.8 ns
Compound: Fc1ccc(-[c+]2c3ccccc3oc3ccccc32)cc1

fluorescence lifetime (in CC#N): 0.63 ns
Compound: Cc1cc2nc3c(=O)[nH]c(=O)n(C)c3nc2cc1C

fluorescence lifetime (in CC#N): 1.44 ns | fluorescence lifetime (in CCCCCC): 0.45 ns | fluorescence lifetime (in CO): 0.36 ns | fluorescence lifetime (in CS(C)=O): 0.67 ns | fluorescence lifetime (in ClCCl): 0.25 ns
Compound: COc1ccc(-c2nc3c(c4c2-c2ccccc2CC4)-c2ccccc2CC3)cc1

Compound: CCCCCCCCCCCCOc1ccc(C#Cc2ccc(C#Cc3ccc(OCCCCCCCCCCCC)c(OCCCCCCCCCCCC)c3)c3nc4c5ccccc5c5ccccc5c4nc23)cc1OCCCCCCCCCCCC
fluorescence lifetime (in C1CCOC1): 8.22 ns | fluorescence lifetime (in Cc1ccccc1): 7.13 ns | fluorescence lifetime (in ClCCl): 8.62 ns

fluorescence lifetime (in ClCCl): 7.8 ns
Compound: COc1ccc(-c2c3cc4ccccc4cc3c(-c3ccc(OC)cc3)c3cc4ccccc4cc23)cc1

fluorescence lifetime (in CC#N): 2.68 ns | fluorescence lifetime (in CO): 2.52 ns | fluorescence lifetime (in O): 3.01 ns
Compound: CN1CCN(CCCN2c3ccccc3Sc3ccc(C(F)(F)F)cc32)CC1

fluorescence lifetime (in C1CCOC1): 1.5 ns
Compound: C(=C\c1ccc(N(c2ccc(/C=C/c3ccc(N(c4ccccc4)c4ccccc4)cc3)cc2)c2ccc(-c3nc4ccccc4nc3-c3ccc(N(c4ccc(/C=C/c5ccc(N(c6ccccc6)c6ccccc6)cc5)cc4)c4ccc(/C=C/c5ccc(N(c6ccccc6)c6ccccc6)cc5)cc4)cc3)cc2)cc1)/c1ccc(N(c2ccccc2)c2ccccc2)cc1

fluorescence lifetime (in C1CCCCC1): 4.02 ns | fluorescence lifetime (in CCOC(C)=O): 4.22 ns | fluorescence lifetime (in CO): 4.3 ns
Compound: Cc1ccccc1C1=C2C=c3c(oc4ccc(F)cc34)=[N+]2[B-](F)(F)n2c1cc1c3cc(F)ccc3oc12

fluorescence lifetime (in ClCCl): 2.28 ns
Compound: CCCCC(CC)COc1ccc2nc(-c3ccc(-c4ccc(N(C)C)cc4)s3)sc2c1 (stereo unspecified)

fluorescence lifetime (in CCO): 0.05 ns
Compound: CC1(C)CC(/C=C/c2ccc(-n3cccn3)cc2)=CC(=C(C#N)C#N)C1

Compound: O=S(=O)(c1ccc(N2c3ccccc3Oc3ccccc32)cc1)c1ccc(N2c3ccccc3Oc3ccccc32)cc1
fluorescence lifetime (in C1COCCO1): 19 ns | fluorescence lifetime (in CC(C)=O): 4.3 ns | fluorescence lifetime (in Cc1ccccc1): 15 ns | fluorescence lifetime (in ClC(Cl)Cl): 16 ns | fluorescence lifetime (in c1cc(-n2c3ccccc3c3ccccc32)cc(-n2c3ccccc3c3ccccc32)c1): 14 ns

fluorescence lifetime (in CC#N): 1.61 ns | fluorescence lifetime (in CCO): 2.92 ns | fluorescence lifetime (in CN(C)C=O): 1.92 ns | fluorescence lifetime (in O): 1.67 ns
Compound: CCCCOC(=O)c1ccccc1-c1c2ccc(=[N+](CC)CC)cc-2oc2cc(N(CC)CC)ccc12

fluorescence lifetime (in ClCCl): 3.51 ns
Compound: CCN(CC)c1ccc2c(c1)oc(=O)c1c(C)nc3c(c(-c4ccccc4)nn3-c3ccccc3)c12

fluorescence lifetime (in ClCCl): 2.67 ns
Compound: c1ccc(N2N=C(c3ccc4ccc5cccc6ccc3c4c56)CC2c2ccc3ccc4cccc5ccc2c3c45)cc1 (stereo unspecified)

Compound: C#CCNC1=C2C(C)=CC(C)=[N+]2[B-](F)(F)n2c(C)cc(C)c21
fluorescence lifetime (in C1CCCCC1): 1.78 ns | fluorescence lifetime (in CC(C)=O): 0.61 ns | fluorescence lifetime (in CCOC(C)=O): 0.78 ns | fluorescence lifetime (in CO): 0.518 ns | fluorescence lifetime (in OCC(F)(F)F): 0.76 ns

Compound: CC(C)(C)c1ccc2c(c1)B1c3cc(C(C)(C)C)ccc3Oc3cc(N4c5ccccc5C(C)(C)c5ccccc54)cc(c31)O2
fluorescence lifetime (in Cc1ccccc1): 6.6 ns

Compound: N#Cc1c(-n2c3ccccc3c3ccccc32)c(-n2c3ccccc3c3ccccc32)c(-n2c3ccccc3c3ccccc32)c(-n2c3ccc(-c4ccccc4)cc3c3cc(-c4ccccc4)ccc32)c1-n1c2ccccc2c2ccccc21
fluorescence lifetime (in Cc1ccccc1): 7 ns

fluorescence lifetime (in ClCCl): 5.6 ns
Compound: COc1ccc(C(=O)c2c(C)c3ccc4cccc5c6cccc7ccc2c(c76)c3c45)cc1

fluorescence lifetime (in CC#N): 1.23 ns
Compound: COc1ccc2cc(/C=C/c3ccc([N+](=O)[O-])cc3)c(=O)oc2c1
